The text below walks through data of paper PMC7531004, “Discovery of gramicidin A analogues with altered activities by multidimensional screening of a one-bead-one-compound library” (Nature Communications, 2020).

A short description of data set [1]: H+/Na+ transport assay of bead-derived peptides (one-point).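 Also: relative to parent gramicidin A activity set to 1.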 In kind it is biochemical. More on the design: key: relative activity; mean of two control wells = 1.00. The settings on record: bead-derived peptide solution, EYPC/EYPG LUVs. Summed up:
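Miniaturized 96-well format. LUVs with entrapped pyranine (1.0 mM) were exposed to peptide for 30 min at RT. Intensities were expressed relative to full lysis by Triton X-100 and no treatment, with control-well mean = 1.00.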

The conditions of data set [2]: cell viability/%. The method, boiled down: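 Peptide stocks diluted 250× in growth medium; P388 cells 1 × 10^4 cells/mL final; 37 °C, 5% CO2, 92 h. WST-1 + 1-methoxy PMS, 4 h, A415. Output: % viability.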
Data set [3] concerns Streptococcus pyogenes SSI-9. Put plainly: Antibacterial activity assay of bead-derived peptides (three concentrations). Format: cell-based. Also on record: key: +++: inhibition by the 640-fold diluted peptide solution; ++: inhibition by the 160-fold diluted solution; +: inhibition by the 40-fold diluted solution; -: no inhibition. The settings on record: S. pyogenes, bead-derived peptide solution, three concentrations. Summed up: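 Growth inhibition scored visually as precipitated bacteria after 37 °C, 18 h incubation. Streptococcus pyogenes SSI-9 inoculum of 2 × 10^5 CFU in Ca2+/Mg2+-adjusted Mueller Hinton broth plus 5% laked horse blood; peptides tested at three levels: stock, 4-fold and 16-fold DMSO dilutions.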

Where a SMILES comes first, the peptide text is derived from it. [ ]: non-standard residue; d: D form. The star is where a group is joined. NHCH2CH2OH = OCCN*; For = O=C*

The viability is a per cent measure of how many cells are alive, often set against a control.

For `CNC(=O)C[C@@H](NC(=O)[C@H](Cc1c[nH]c2ccccc12)NC(=O)[C@H](NC(=O)[C@H](Cc1c[nH]c2ccccc12)NC(=O)[C@H](NC(=O)[C@H](Cc1c[nH]c2ccccc12)NC(=O)[C@H](NC(=O)[C@@H](NC(=O)[C@@H](CC(C)C)NC(=O)[C@H](C)NC(=O)[C@H](NC(=O)[C@H](C)NC(=O)CNC(=O)[C@@H](NC=O)C(C)C)C(C)C)C(C)C)C(C)C)C(C)C)C(C)C)C(=O)N[C@@H](Cc1c[nH]c2ccccc12)C(=O)NCCO` [compound 2911] (For-VGA[dV]A[dL]V[dV]W[dV]W[dV]W[dD](NHMe)W-NHCH2CH2OH), the “H+/Na+ transport activity normalized against the value of 1 (1.00)” value (“H+/Na+ transport activity normalized” for short) in data set [1] is on record as 1.16. In data set [2], this molecule came in with a viability of 100%. In addition, the antibacterial activity result in data set [3] is “-”.

Regarding `CC(C)C[C@@H](NC(=O)[C@H](C)NC(=O)CNC(=O)[C@@H](NC=O)C(C)C)C(=O)N[C@@H](C)C(=O)N[C@H](CC(C)C)C(=O)N[C@H](C(=O)N[C@@H](C(=O)N[C@@H](Cc1c[nH]c2ccccc12)C(=O)N[C@@H](C(=O)N[C@@H](Cc1c[nH]c2ccccc12)C(=O)N[C@@H](C(=O)N[C@@H](Cc1c[nH]c2ccccc12)C(=O)N[C@H](CC(C)C)C(=O)N[C@@H](Cc1c[nH]c2ccccc12)C(=O)NCCO)C(C)C)[C@H](C)O)C(C)C)C(C)C` [compound 2931] (For-VGA[dL]A[dL]V[dV]W[dT]W[dV]W[dL]W-NHCH2CH2OH), in data set [1], the “H+/Na+ transport activity normalized” value is 1.06. In data set [2], this molecule displayed a viability of 100%. In data set [3], the antibacterial activity entry is reported as “+”.

For `CNC(=O)C[C@@H](NC(=O)[C@@H](NC(=O)[C@@H](CC(C)C)NC(=O)[C@H](C)NC(=O)[C@@H](CC(C)C)NC(=O)[C@H](C)NC(=O)CNC(=O)[C@@H](NC=O)C(C)C)C(C)C)C(=O)N[C@@H](Cc1c[nH]c2ccccc12)C(=O)N[C@@H](C(=O)N[C@@H](Cc1c[nH]c2ccccc12)C(=O)N[C@H](CC(C)C)C(=O)N[C@@H](Cc1c[nH]c2ccccc12)C(=O)N[C@H](CC(C)C)C(=O)N[C@@H](Cc1c[nH]c2ccccc12)C(=O)NCCO)C(C)C` [compound 2978] (For-VGA[dL]A[dL]V[dD](NHMe)W[dV]W[dL]W[dL]W-NHCH2CH2OH), in data set [1], the “H+/Na+ transport activity normalized” value is given as 1.18. In addition, the viability in data set [2] was found to be 100%. Further, in data set [3], the antibacterial activity result is given as “-”.

For `CC(C)C[C@@H](NC(=O)[C@@H](NC(=O)[C@H](NC(=O)[C@H](C)NC(=O)[C@H](NC(=O)[C@H](C)NC(=O)CNC(=O)[C@@H](NC=O)C(C)C)[C@H](C)O)C(C)C)C(C)C)C(=O)N[C@@H](Cc1c[nH]c2ccccc12)C(=O)N[C@@H](C(=O)N[C@@H](Cc1c[nH]c2ccccc12)C(=O)N[C@@H](C(=O)N[C@@H](Cc1c[nH]c2ccccc12)C(=O)N[C@@H](C(=O)N[C@@H](Cc1c[nH]c2ccccc12)C(=O)NCCO)C(C)C)C(C)C)C(C)C` [compound 3019] (For-VGA[dT]A[dV]V[dL]W[dV]W[dV]W[dV]W-NHCH2CH2OH), the “H+/Na+ transport activity normalized” value in data set [1] is 1.12. The viability in data set [2] was 100%. The antibacterial activity entry in data set [3] is recorded as “-”.

On to `CC(C)C[C@@H](NC(=O)[C@H](C)NC(=O)[C@H](NC(=O)[C@H](C)NC(=O)CNC(=O)[C@@H](NC=O)C(C)C)[C@H](C)O)C(=O)N[C@H](C(=O)N[C@H](CC(C)C)C(=O)N[C@@H](Cc1c[nH]c2ccccc12)C(=O)N[C@@H](C(=O)N[C@@H](Cc1c[nH]c2ccccc12)C(=O)N[C@H](CC(C)C)C(=O)N[C@@H](Cc1c[nH]c2ccccc12)C(=O)N[C@@H](C(=O)N[C@@H](Cc1c[nH]c2ccccc12)C(=O)NCCO)[C@H](C)O)C(C)C)C(C)C` [compound 3130] (For-VGA[dT]A[dL]V[dL]W[dV]W[dL]W[dT]W-NHCH2CH2OH), for which the “H+/Na+ transport activity normalized” value in data set [1] is 1.05. In data set [2], this molecule had a viability of 100%. For the same molecule, the antibacterial activity entry in data set [3] is reported as “-”.

As to `CC(C)C[C@@H](NC(=O)[C@H](Cc1c[nH]c2ccccc12)NC(=O)[C@H](NC(=O)[C@H](Cc1c[nH]c2ccccc12)NC(=O)[C@@H](CC(C)C)NC(=O)[C@@H](NC(=O)[C@H](NC(=O)[C@H](C)NC(=O)[C@H](NC(=O)[C@H](C)NC(=O)CNC(=O)[C@@H](NC=O)C(C)C)C(C)C)C(C)C)C(C)C)[C@H](C)O)C(=O)N[C@@H](Cc1c[nH]c2ccccc12)C(=O)N[C@@H](C(=O)N[C@@H](Cc1c[nH]c2ccccc12)C(=O)NCCO)C(C)C` [compound 3161] (For-VGA[dV]A[dV]V[dL]W[dT]W[dL]W[dV]W-NHCH2CH2OH), in data set [1], the “H+/Na+ transport activity normalized” value was determined as 1.00. In data set [2], this molecule registered a viability of 100%. Also, the antibacterial activity entry in data set [3] is reported as “-”.

Take `CC(C)C[C@@H](NC(=O)[C@H](C)NC(=O)[C@H](NC(=O)[C@H](C)NC(=O)CNC(=O)[C@@H](NC=O)C(C)C)C(C)C)C(=O)N[C@H](C(=O)N[C@H](CC(C)C)C(=O)N[C@@H](Cc1c[nH]c2ccccc12)C(=O)N[C@@H](C(=O)N[C@@H](Cc1c[nH]c2ccccc12)C(=O)N[C@@H](C(=O)N[C@@H](Cc1c[nH]c2ccccc12)C(=O)N[C@H](CC(C)C)C(=O)N[C@@H](Cc1c[nH]c2ccccc12)C(=O)NCCO)[C@H](C)O)C(C)C)C(C)C` [compound 3205] (For-VGA[dV]A[dL]V[dL]W[dV]W[dT]W[dL]W-NHCH2CH2OH): the “H+/Na+ transport activity normalized” value in data set [1] was 1.16. In addition, the viability in data set [2] was 90.2%. In data set [3], the antibacterial activity entry is “-”.

For the molecule `CC(C)C[C@@H](NC(=O)[C@H](C)NC(=O)[C@H](NC(=O)[C@H](C)NC(=O)CNC(=O)[C@@H](NC=O)C(C)C)C(C)C)C(=O)N[C@H](C(=O)N[C@@H](C(=O)N[C@@H](Cc1c[nH]c2ccccc12)C(=O)N[C@@H](C(=O)N[C@@H](Cc1c[nH]c2ccccc12)C(=O)N[C@H](CC(C)C)C(=O)N[C@@H](Cc1c[nH]c2ccccc12)C(=O)N[C@@H](C(=O)N[C@@H](Cc1c[nH]c2ccccc12)C(=O)NCCO)C(C)C)C(C)C)[C@H](C)O)C(C)C` [compound 3206] (For-VGA[dV]A[dL]V[dT]W[dV]W[dL]W[dV]W-NHCH2CH2OH), in data set [1], the “H+/Na+ transport activity normalized” value was 1.19. The molecule further yielded a viability in data set [2] of 97.4%. The antibacterial activity result in data set [3] is recorded as “-”.

Regarding `CC(C)C[C@@H](NC(=O)[C@H](Cc1c[nH]c2ccccc12)NC(=O)[C@@H](CC(C)C)NC(=O)[C@H](Cc1c[nH]c2ccccc12)NC(=O)[C@H](NC(=O)[C@H](Cc1c[nH]c2ccccc12)NC(=O)[C@H](NC(=O)[C@@H](NC(=O)[C@H](NC(=O)[C@H](C)NC(=O)[C@H](NC(=O)[C@H](C)NC(=O)CNC(=O)[C@@H](NC=O)C(C)C)[C@H](C)O)C(C)C)C(C)C)C(C)C)[C@H](C)O)C(=O)N[C@@H](Cc1c[nH]c2ccccc12)C(=O)NCCO` [compound 3226] (For-VGA[dT]A[dV]V[dV]W[dT]W[dL]W[dL]W-NHCH2CH2OH), the “H+/Na+ transport activity normalized” value in data set [1] stood at 1.06. For the same molecule, in data set [2], the viability was 87.6%. Moreover, in data set [3], the antibacterial activity result is reported as “-”.

Consider `CC(C)C[C@@H](NC(=O)[C@H](C)NC(=O)CNC(=O)[C@@H](NC=O)C(C)C)C(=O)N[C@@H](C)C(=O)N[C@H](CC(C)C)C(=O)N[C@H](C(=O)N[C@H](CC(C)C)C(=O)N[C@@H](Cc1c[nH]c2ccccc12)C(=O)N[C@@H](C(=O)N[C@@H](Cc1c[nH]c2ccccc12)C(=O)N[C@@H](C(=O)N[C@@H](Cc1c[nH]c2ccccc12)C(=O)N[C@H](CC(C)C)C(=O)N[C@@H](Cc1c[nH]c2ccccc12)C(=O)NCCO)[C@H](C)O)[C@H](C)O)C(C)C` [compound 3244] (For-VGA[dL]A[dL]V[dL]W[dT]W[dT]W[dL]W-NHCH2CH2OH), for which the “H+/Na+ transport activity normalized” value in data set [1] came to 1.03. In addition, the viability in data set [2] turned out to be 100%. In data set [3], the antibacterial activity result is given as “-”.

On to `CC(C)C[C@@H](NC(=O)[C@H](C)NC(=O)CNC(=O)[C@@H](NC=O)C(C)C)C(=O)N[C@@H](C)C(=O)N[C@@H](C(=O)N[C@H](C(=O)N[C@H](CC(C)C)C(=O)N[C@@H](Cc1c[nH]c2ccccc12)C(=O)N[C@H](CC(C)C)C(=O)N[C@@H](Cc1c[nH]c2ccccc12)C(=O)N[C@@H](C(=O)N[C@@H](Cc1c[nH]c2ccccc12)C(=O)N[C@H](CC(C)C)C(=O)N[C@@H](Cc1c[nH]c2ccccc12)C(=O)NCCO)C(C)C)C(C)C)[C@H](C)O` [compound 3247] (For-VGA[dL]A[dT]V[dL]W[dL]W[dV]W[dL]W-NHCH2CH2OH), for which the “H+/Na+ transport activity normalized” value in data set [1] is reported as 1.24. Besides, the viability in data set [2] stood at 99.5%. For the same molecule, the antibacterial activity result in data set [3] is on record as “-”.

Take `CC(C)C[C@@H](NC(=O)[C@H](C)NC(=O)[C@H](NC(=O)[C@H](C)NC(=O)CNC(=O)[C@@H](NC=O)C(C)C)C(C)C)C(=O)N[C@H](C(=O)N[C@H](CC(C)C)C(=O)N[C@@H](Cc1c[nH]c2ccccc12)C(=O)N[C@H](CC(C)C)C(=O)N[C@@H](Cc1c[nH]c2ccccc12)C(=O)N[C@@H](C(=O)N[C@@H](Cc1c[nH]c2ccccc12)C(=O)N[C@H](CC(C)C)C(=O)N[C@@H](Cc1c[nH]c2ccccc12)C(=O)NCCO)C(C)C)C(C)C` [compound 3255] (For-VGA[dV]A[dL]V[dL]W[dL]W[dV]W[dL]W-NHCH2CH2OH): the “H+/Na+ transport activity normalized” value in data set [1] is 1.13. Moreover, the viability in data set [2] was 4.6%. In addition, in data set [3], the antibacterial activity result is reported as “+”.
